Test results from ChEMBL document CHEMBL1201862, “PubChem BioAssay data set” (2004).
Active and inactive are the calls of the source.

How the values were obtained:
[1] = biological target: Intestinal-type alkaline phosphatase (Mus musculus, UniProt P24822); assay: PubChem AID 488785; type: functional
[2] = biological target: T1, Alkaline phosphatase, tissue-nonspecific isozyme (Homo sapiens, UniProt P05186); assay: TNAP enzyme inhibition by screening hits, dose response, selectivity assay for mouse IAP inhibitor project, biochemical, human TNAP, uHTS hits (AID 488906); type: functional
T1 sequence (P05186 whole entry): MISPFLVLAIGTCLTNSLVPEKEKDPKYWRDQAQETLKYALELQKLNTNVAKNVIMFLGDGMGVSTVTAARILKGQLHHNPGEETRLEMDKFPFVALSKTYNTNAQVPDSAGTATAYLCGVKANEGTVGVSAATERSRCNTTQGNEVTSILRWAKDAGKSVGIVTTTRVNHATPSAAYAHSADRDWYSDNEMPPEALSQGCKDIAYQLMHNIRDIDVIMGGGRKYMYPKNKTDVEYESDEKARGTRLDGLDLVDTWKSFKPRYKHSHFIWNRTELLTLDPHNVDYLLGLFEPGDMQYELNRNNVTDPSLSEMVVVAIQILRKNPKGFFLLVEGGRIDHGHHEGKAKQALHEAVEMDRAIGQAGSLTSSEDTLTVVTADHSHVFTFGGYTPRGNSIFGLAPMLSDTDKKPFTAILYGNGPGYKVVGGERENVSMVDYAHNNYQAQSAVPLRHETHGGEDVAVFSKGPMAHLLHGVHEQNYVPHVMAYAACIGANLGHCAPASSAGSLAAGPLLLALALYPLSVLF

[3] = biological target: Intestinal-type alkaline phosphatase (Homo sapiens, UniProt P09923); assay: inhibition of human intestinal alkaline phosphatase – biochemical, dose response (AID 488876); type: functional
[4] = biological target: Delta-type opioid receptor (Homo sapiens, UniProt P41143); assay: Counterscreen for agonists of heterodimerization of the mu 1 (OPRM1) and delta 1 (OPRD1) opioid receptors: Luminescence-based cell-based high throughput dose response assay to identify agonists of OPRD1 homodimerization. [Related pubchem assays (depositor defined):AID504326, AID504355, AID504692, AID504904, AID504905]; type: functional
[5] = biological target: Mu-type opioid receptor (Homo sapiens, UniProt P35372); assay: Counterscreen for agonists of heterodimerization of the mu 1 (OPRM1) and delta 1 (OPRD1) opioid receptors: Luminescence-based cell-based high throughput dose response assay to identify agonists of OPRM1 homodimerization.; type: functional;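 also: U2OS cells expressing OPRM1 and beta-arrestin as split beta-galactosidase partners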
[6] = biological target: 5-hydroxytryptamine receptor 5A (Homo sapiens, UniProt P47898); assay: Counterscreen for agonists of OPRM1-OPRD1 heterodimerization: luminescence-based cell-based high throughput dose response assay to identify agonists of 5-hydroxytryptamine (serotonin) 5A receptor (HTR5A). [Related pubchem assays (depositor defined):AID504326, AID504355, AID504692, AID504904, AID504905]; type: functional
[7] = biological target: Cytochrome P450 2C9 (Homo sapiens, UniProt P11712)
[8] = biological target: T2, High affinity choline transporter 1 (Homo sapiens, UniProt Q9GZV3); assay: human choline transporter blockers, potency – cell-based, 5-point CRC, membrane potential dye, dose response (AID 504840); type: functional
T2 sequence (Q9GZV3 whole entry): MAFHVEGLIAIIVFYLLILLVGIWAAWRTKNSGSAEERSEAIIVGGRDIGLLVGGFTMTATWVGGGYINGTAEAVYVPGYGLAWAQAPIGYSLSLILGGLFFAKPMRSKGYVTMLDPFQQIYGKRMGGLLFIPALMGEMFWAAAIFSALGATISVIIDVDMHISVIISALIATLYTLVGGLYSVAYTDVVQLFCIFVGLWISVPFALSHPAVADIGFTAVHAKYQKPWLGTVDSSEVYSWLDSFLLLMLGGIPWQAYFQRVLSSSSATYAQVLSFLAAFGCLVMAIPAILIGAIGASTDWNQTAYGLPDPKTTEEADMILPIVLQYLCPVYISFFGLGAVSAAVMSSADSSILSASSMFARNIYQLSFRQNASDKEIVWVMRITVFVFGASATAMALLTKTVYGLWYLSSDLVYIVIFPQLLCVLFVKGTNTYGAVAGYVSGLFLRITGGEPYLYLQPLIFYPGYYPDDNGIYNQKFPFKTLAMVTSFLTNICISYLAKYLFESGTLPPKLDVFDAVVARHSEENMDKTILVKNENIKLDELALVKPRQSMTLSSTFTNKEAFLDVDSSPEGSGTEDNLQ

[9] = biological target: T2, High affinity choline transporter 1; assay: human choline transporter blockers, potency – cell-based, 10-point CRC, membrane potential dye, dose response (AID 588401); type: functional;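 also: membrane potential dye fluorescence of choline-evoked depolarization via CHT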
[10] = biological target: T3, Short transient receptor potential channel 4 (Mus musculus, UniProt Q9QUQ5); assay: calcium entry via TRPC4 opening agents – cell-based, HEK293 TRPC4/mu-opioid, Fluo-4 calcium, dose response (AID 434937); type: functional
T3 sequence (Q9QUQ5 whole entry): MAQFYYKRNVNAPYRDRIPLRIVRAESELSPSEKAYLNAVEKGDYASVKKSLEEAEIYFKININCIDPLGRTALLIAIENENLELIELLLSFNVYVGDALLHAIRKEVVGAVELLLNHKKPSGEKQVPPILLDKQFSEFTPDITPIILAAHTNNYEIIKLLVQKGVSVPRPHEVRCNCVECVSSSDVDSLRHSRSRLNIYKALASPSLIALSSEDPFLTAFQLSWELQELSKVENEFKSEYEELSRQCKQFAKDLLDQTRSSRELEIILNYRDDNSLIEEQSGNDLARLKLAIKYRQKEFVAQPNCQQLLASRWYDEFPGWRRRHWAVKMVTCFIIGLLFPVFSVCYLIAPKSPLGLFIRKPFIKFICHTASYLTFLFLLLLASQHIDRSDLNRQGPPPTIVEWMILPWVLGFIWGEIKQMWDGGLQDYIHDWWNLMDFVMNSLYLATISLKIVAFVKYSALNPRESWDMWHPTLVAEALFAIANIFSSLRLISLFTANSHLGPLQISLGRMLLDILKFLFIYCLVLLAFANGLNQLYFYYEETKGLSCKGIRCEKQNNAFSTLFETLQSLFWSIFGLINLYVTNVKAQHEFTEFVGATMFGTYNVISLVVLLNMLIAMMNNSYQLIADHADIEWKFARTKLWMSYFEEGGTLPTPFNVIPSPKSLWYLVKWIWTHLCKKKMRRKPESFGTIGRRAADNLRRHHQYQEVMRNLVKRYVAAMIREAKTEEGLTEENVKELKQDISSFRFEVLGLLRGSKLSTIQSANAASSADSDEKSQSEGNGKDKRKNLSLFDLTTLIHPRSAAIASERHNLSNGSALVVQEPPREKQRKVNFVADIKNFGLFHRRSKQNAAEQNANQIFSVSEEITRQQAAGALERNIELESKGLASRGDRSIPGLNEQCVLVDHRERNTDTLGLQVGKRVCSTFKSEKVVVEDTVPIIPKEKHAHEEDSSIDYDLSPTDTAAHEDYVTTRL

[11] = test system: Vero; assay: viability of Vero cells under compound – cytotoxicity control for flavivirus capping enzyme inhibitors (AID 588742); type: functional; details: Chlorocebus sabaeus
[12] = biological target: Cytochrome P450 2D6 (Homo sapiens, UniProt P10635);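 also: CYP2D6 member of a cytochrome P450 panel assay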
[13] = biological target: T4, Endoribonuclease toxin MazF (Escherichia coli K-12, UniProt P0AE70); assay: activation of MazEF endoribonuclease cleavage – biochemical, fluorescence, single-stranded RNA substrate, uHTS hits, dose response (AID 588481); type: functional
T4 sequence (P0AE70 whole entry): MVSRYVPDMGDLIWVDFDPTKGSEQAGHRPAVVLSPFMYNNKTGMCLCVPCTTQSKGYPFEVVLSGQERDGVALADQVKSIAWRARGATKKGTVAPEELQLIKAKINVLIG

[14] = biological target: T4, Endoribonuclease toxin MazF; assay: substrate-only fluorescence increase artefacts – biochemical, single-stranded RNase substrate, counter-screen for MazEF activator project, dose response (AID 588502); type: functional

Mu-type opioid receptor, sequence (P35372 whole entry): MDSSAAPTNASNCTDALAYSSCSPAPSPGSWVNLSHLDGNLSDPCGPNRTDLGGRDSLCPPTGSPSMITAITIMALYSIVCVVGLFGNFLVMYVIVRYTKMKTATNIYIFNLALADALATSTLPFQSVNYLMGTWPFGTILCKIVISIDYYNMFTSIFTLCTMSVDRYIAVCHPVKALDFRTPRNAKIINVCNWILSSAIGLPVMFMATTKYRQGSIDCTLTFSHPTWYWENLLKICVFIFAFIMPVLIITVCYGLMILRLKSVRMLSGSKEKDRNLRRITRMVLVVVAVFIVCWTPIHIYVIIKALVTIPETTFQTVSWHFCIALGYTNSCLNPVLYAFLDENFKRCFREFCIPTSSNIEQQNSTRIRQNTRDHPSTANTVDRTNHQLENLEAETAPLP
Delta-type opioid receptor, sequence (P41143 whole entry): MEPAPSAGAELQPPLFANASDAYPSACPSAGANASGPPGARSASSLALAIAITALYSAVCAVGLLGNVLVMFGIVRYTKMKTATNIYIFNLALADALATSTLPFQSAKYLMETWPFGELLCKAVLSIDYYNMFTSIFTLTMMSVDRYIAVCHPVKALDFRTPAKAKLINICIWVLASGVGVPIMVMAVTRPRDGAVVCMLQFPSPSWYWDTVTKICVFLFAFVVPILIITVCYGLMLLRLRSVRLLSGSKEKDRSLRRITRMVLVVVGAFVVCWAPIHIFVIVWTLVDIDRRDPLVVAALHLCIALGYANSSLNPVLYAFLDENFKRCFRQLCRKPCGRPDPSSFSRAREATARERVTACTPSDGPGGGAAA
5-hydroxytryptamine receptor 5A, sequence (P47898 whole entry): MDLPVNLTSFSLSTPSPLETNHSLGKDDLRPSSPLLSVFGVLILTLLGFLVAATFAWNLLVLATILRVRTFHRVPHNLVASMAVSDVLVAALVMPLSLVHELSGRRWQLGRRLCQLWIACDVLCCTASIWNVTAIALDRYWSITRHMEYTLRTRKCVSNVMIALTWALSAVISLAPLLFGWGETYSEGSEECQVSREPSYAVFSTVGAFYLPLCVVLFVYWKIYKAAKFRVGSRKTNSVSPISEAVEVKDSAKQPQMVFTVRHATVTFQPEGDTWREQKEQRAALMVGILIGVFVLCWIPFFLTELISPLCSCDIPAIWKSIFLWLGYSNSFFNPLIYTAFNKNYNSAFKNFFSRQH
Cytochrome P450 2C9, sequence (P11712 whole entry): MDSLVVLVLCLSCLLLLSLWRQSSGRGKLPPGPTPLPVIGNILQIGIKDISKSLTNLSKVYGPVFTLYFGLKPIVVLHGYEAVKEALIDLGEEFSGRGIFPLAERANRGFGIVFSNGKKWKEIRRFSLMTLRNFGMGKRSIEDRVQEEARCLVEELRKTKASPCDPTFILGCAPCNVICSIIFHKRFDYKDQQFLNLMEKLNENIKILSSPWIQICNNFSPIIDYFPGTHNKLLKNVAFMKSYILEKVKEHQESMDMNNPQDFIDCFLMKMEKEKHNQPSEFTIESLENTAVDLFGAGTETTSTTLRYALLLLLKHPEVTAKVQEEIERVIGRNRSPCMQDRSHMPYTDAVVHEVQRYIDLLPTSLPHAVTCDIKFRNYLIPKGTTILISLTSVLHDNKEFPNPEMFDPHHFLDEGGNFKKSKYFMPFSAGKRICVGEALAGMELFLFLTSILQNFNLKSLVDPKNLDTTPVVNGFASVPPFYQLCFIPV
Intestinal-type alkaline phosphatase (Mus musculus, UniProt P24822), sequence (P24822 whole entry): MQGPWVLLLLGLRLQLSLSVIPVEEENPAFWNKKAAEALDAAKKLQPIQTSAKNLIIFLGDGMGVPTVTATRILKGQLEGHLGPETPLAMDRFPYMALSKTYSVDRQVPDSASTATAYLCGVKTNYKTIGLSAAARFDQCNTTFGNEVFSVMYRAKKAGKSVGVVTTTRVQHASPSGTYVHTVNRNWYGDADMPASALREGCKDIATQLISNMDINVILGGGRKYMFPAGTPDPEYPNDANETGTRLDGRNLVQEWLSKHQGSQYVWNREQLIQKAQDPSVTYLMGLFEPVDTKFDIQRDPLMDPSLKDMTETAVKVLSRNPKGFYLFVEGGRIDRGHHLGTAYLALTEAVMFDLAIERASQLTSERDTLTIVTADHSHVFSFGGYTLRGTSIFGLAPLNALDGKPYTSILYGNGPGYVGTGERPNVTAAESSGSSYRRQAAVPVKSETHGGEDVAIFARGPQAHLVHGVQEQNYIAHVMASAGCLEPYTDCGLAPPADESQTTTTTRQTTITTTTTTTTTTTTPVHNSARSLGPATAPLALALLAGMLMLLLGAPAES
Intestinal-type alkaline phosphatase (Homo sapiens, UniProt P09923), sequence (P09923 whole entry): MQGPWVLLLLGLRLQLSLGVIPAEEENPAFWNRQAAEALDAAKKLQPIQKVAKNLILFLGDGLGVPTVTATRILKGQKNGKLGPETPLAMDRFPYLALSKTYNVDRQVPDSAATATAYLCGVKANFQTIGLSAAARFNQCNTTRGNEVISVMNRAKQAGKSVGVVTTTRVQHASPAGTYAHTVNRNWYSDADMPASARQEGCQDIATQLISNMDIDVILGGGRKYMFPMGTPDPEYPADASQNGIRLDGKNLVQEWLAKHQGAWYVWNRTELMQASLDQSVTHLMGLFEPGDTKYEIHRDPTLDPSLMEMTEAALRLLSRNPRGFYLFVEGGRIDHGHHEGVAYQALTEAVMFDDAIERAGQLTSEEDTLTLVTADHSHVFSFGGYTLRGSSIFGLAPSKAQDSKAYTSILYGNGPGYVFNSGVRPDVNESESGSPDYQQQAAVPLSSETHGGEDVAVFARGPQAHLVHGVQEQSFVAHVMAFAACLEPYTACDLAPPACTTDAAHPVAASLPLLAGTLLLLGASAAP
Cytochrome P450 2D6, sequence (P10635 whole entry): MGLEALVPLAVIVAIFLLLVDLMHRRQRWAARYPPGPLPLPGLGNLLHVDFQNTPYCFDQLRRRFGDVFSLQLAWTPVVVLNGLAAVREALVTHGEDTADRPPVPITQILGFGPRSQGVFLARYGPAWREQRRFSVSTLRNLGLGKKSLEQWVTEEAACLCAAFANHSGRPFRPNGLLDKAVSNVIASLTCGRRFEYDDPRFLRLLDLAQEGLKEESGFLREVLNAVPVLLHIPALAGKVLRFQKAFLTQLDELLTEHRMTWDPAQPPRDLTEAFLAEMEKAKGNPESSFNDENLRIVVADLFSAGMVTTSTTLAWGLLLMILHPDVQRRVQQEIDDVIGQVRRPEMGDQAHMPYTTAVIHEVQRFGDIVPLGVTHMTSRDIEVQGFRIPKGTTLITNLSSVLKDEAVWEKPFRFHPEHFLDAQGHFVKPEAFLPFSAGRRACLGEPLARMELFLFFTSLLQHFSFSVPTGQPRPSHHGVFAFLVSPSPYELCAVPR

For `O=C1NN(c2cccc(Br)c2)C(=O)/C1=C/c1ccc(-c2cc([N+](=O)[O-])ccc2O)o1`, the IC50 [1] was 4.7 µM (active), the IC50 [2] was > 100 µM (inactive) and the IC50 [3] was > 100 µM (inactive).

For `CCN1CCN(c2ccc([N+](=O)[O-])c(Sc3nc4ccccc4[nH]3)c2)CC1`, the EC50 [4] was 4.1 µM (active), the EC50 [5] was > 92.5 µM (inactive) and the EC50 [6] was > 92.5 µM (inactive).

With `Cc1cc(C)c(NC(=O)NC(=O)c2ccc(F)cc2)c(C)n1` the AC50 [7] was “inconclusive”.

For `N=C1CCCN1CC(=O)c1ccc(Br)cc1`, the IC50 [8] was 6.07 µM (active) and the IC50 [9] was 1.06 µM (active).

With `COc1ccc2c(Cl)c(-c3nnc(SCC(=O)c4ccccc4)n3C)sc2c1` the EC50 [10] was 0.668 µM (active), the EC50 [4] was 26.5 µM (inactive) and the EC50 [5] was 10.3 µM (inactive). For the same molecule, the EC50 [6] was > 92.5 µM (inactive).

In the case of `Cc1ccc(-c2cc(C(=O)NCc3ccco3)c3ccccc3n2)s1`, the CC50 [11] is reported as > 40 µM (active).

In the case of `COc1ccc(CNc2ccnc(-c3cccc(NS(C)(=O)=O)c3)n2)c(OC)c1`, the AC50 [12] is reported as 12.6 µM (inconclusive) and the AC50 [7] is reported as “inconclusive”.

In the case of `CCOC(=O)C1=C(C)N(CC(C)C)C(=O)/C1=C\c1cccs1`, the EC50 [13] is reported as > 99 µM (inactive) and the EC50 [14] is reported as > 99 µM (inactive).

`CN1C2C=C(N(CCc3ccccc3)C(=O)c3ccc(Cl)cc3)CC1CC2` (stereo not given) was tested, and the EC50 [10] was 0.531 µM (active), the EC50 [4] was > 92.5 µM (inactive) and the EC50 [5] was 67.3 µM (inactive). For the same molecule, the EC50 [6] was > 92.5 µM (inactive).

For `N#Cc1c(SCC(=O)Nc2nc3ccccc3s2)sc2c(O)cc(O)nc12`, the IC50 [1] was 18.8 µM (active), the IC50 [2] was > 100 µM (inactive) and the IC50 [3] was > 100 µM (inactive).
